Measured values reported in patent publication US20140271485A1, “USE OF COELENTERAZINE FOR IMAGING INSULIN-GENERATING BETA-CELLS” (The Board of Trustees of the Leland Stanford Junior …, priority 2013, published 2014).
Entries after “also recorded” stand apart in the source; their conditions may differ.

Assays:
[1] = test system: rat insulinoma cell lines (RIN5F β-cell line); assay: In vitro bioluminescence imaging of cell lines with coelenterazine (cell plate assay); type: cell-based
Method: FIG. 1A is a digital image illustrating a cell plate assay. 10^5 cells of each cell line were washed two times in serum-free RPMI and plated in a 96-well black plate. Coelenterazine was added to a final concentration of 10 μM and the plate imaged. RIN5F is a β-cell line and the remainder are control cell lines.
FIG. 1B is a graph illustrating the quantification of the bioluminescence signals of FIG. 1A. Error bars represent the standard error.
In vitro experiments for the imaging cell lines may be completed on the day of cell collection or following incubation. If imaging is performed following prolonged incubation combined with comparisons between dissimilar cell lines, it is important to consider the likelihood of there being a different division rate for each cell line.
For same-day imaging, the cells are collected by a method dictated by the particular cell line. Cells are washed twice in imaging buffer by repeated resuspension and centrifugation (a variety of buffers have proven effective, including: PBS, DPBS and Krebs). […] The desired concentration of cells is added to an imaging plate.
Coelenterazine is resuspended to a concentration of about 1-10 mg/mL in 100% ethanol and then diluted in imaging buffer to achieve the desired imaging concentration. […]
The coelenterazine is added to wells to be imaged and the signal detected using a bioluminescence detection system such as an IVIS. […]

pancreas = assay: Ex vivo bioluminescence imaging of excised tissues with coelenterazine; parameters: species or system mice; settings: ex vivo imaging of excised mouse tissues; significance P<0.05
Method: FIG. 2A is a digital image illustrating bioluminescence images of excised tissues from 3 mice in 1 mL PBS with 20 μg coelenterazine and imaged immediately.
Error bars represent the standard error and significance is defined as P<0.05.

[2] = test system: β-cell mass (pancreatic signal); assay: In vivo bioluminescence imaging of beta cell mass after intravenous coelenterazine; parameters: species or system mice
Method: FIG. 3A is a digital image, for the in vivo characterization of a coelenterazine (CTZ) pancreatic signal, showing the bioluminescence imaging of mice that were fasted for 6 h or received 2 g/kg intraperitoneal glucose and maintained on 10% sucrose water for 4 h. Mice then received 40 μg CTZ intravenously and were imaged immediately. FIG. 3C is a digital image, for the in vivo characterization of a coelenterazine (CTZ) pancreatic signal, showing the bioluminescence imaging of mice treated with glucose followed by administration of 0.56, 1.4, or 3.5 mg/kg CTZ intravenously. FIG. 3D is a graph illustrating the quantification of the signal detected in FIG. 3C at 1 min intervals following CTZ injection. […] A standardized anesthetic protocol with a defined anesthetic dose and induction period (if using inhalant anesthetics) is also required. Coelenterazine is prepared at a concentration of 10 mg/mL in 100% ethanol. The coelenterazine may be further diluted in a pharmaceutically acceptable carrier selected as suitable for injection into an animal subject for imaging. […] It is important to protect the imaging solution from light and that is prepared immediately prior to use. Following anesthetic induction, the imaging solution is intravenously administered at a dose of about 1-10 mg/kg and imaging is begun immediately in using an in vivo bioluminescence imaging system.

[3] = test system: β-cell mass (pancreatic signal); assay: Streptozotocin-induced diabetic mouse model, coelenterazine imaging of pancreas; type: in vivo, mice
Method: FIGS. 4A-4D illustrate the results from a streptozotocin-induced diabetic mouse model. Mice were treated with 200 mg/kg of streptozotocin (STZ) or PBS on day 0.
Top Panel: 3-days post-treatment, mice were administered 2 g/kg glucose and maintained on 10% sucrose water. Four h later, mice were intravenously injected with 1.4 mg/kg of coelenterazine and imaged. Bottom panel: Bioluminescence imaging of the excised pancreases collected from the mice depicted in top panel.
To conclusively determine the β-cell specificity of the signal, coelenterazine was used to image the pancreas of mice that received the β-cell toxic agent streptozotocin (STZ) versus a Phosphate-Buffered Saline (PBS) control in which the β-cells were functional.

| Structure (SMILES) | coelenterazine-dependent bioluminescence signal of rat insulinoma cell lines relative to other cell lines ([1]; in the absence of any additional reagents) | time to stable maximum of signal following coelenterazine addition ([1]; in vitro, cells in imaging buffer) [min] | bioluminescence signal of pancreas compared to other tissues (pancreas) | time of maximum pancreatic signal intensity post-injection ([2]; intravenous, about 1-10 mg/kg) [min] | signal of insulin-secreting β-cells compared to cells quiescent due to fasting ([2]; mice, glucose-treated vs fasted) | dose dependence of detectable signal intensity ([2]; mice, intravenous) | location of bioluminescence signal upon intravenous injection ([2]; mice, intravenous) | pancreatic signal in STZ-treated mice versus PBS control ([3]; STZ 200 mg/kg day 0, imaging 3 days post-treatment, in vivo and ex vivo pancreas) | correlation between pancreatic signal and blood glucose ([3]; STZ and PBS mice) | blood glucose values, STZ versus PBS ([3]; 200 mg/kg STZ on day 0, measured on day 3) |
| --- | --- | --- | --- | --- | --- | --- | --- | --- | --- | --- |
| O=c1c(Cc2ccc(O)cc2)nc2c(Cc3ccccc3)[nH]c(-c3ccc(O)cc3)cn1-2 [coelenterazine, 6-(4-hydroxyphenyl)-2-[(4-hydroxyphenyl)methyl]-8-(phenylmethyl)-7H-imidazo[3,2-a]pyrazin-3-one] | greater coelenterazine-dependent bioluminescence signal relative to other cell lines | 15 to 45 | Significantly greater signals were detected from the pancreas compared to all other tissues; also recorded: significantly elevated pancreatic signal compared to other examined non-insulin-producing tissues | 2 to 5 | insulin-secreting β-cells produced a greater signal | dose-dependent | pancreatic-specific bioluminescent signal; also recorded: a mid-upper abdominal bioluminescence signal was detected | significant difference (P=0.0000); also recorded: reduced in type I diabetic mice; also recorded: significant reduction in pancreatic signal in STZ-treated mice | correlation was significant (P=0.0317); also recorded: significant and inverse correlation |  |
| CN(N=O)C(=O)N[C@H]1C(O)O[C@H](CO)[C@@H](O)[C@@H]1O (mixture of isomers) [streptozotocin] |  |  |  |  |  |  |  |  |  | difference (P=0.0265) |
